Data on 11 substances can be found in US20130053430A1, “MODULATION OF CETP EXPRESSION” (Isis Pharmaceuticals, Inc., priority 2010, published 2013).

A word on the % inhibition: it is the relative decrease from the control value, in per cent.

Strand notation (5' to 3'): a small letter for the sugar, then the base; units joined by * are phosphorothioate-linked, units joined directly phosphodiester-linked; [ ] holds rarer units or linkages, { } end groups; capitals alone tell only the bases. e = 2'-O-(2-methoxyethyl) (MOE); [5mC] = 5-methylcytosine; d = 2'-deoxy (DNA)

The subject of data set [1] is human CETP mRNA. The experiment in a line: Antisense inhibition of human CETP mRNA in primary hepatocytes from huCETP transgenic mice (Example 4). Type of data set: cell-based, mouse. The settings on record: cytofectin, ~24 hours. As to the method: Transgenic mice expressing human CETP, controlled by its natural flanking region, increase expression of this gene in response to hypercholesterolemia (Jiang, X. C. et al., J. Clin. Invest. 1992. 90: 1290-1295). These mice were utilized for the following studies. Antisense oligonucleotides targeted to a CETP nucleic acid and described in Example 1 were tested for their effect on CETP mRNA transcript in vitro. Cultured primary hepatocytes from huCETP transgenic mice, at a density of 17,500 cells per well in a 96-well plate, were transfected using cytofectin reagent with 100 nM or 200 nM antisense oligonucleotide. After approximately 24 hours, RNA was isolated from the cells and CETP mRNA levels were measured by quantitative real-time PCR. CETP mRNA transcript levels were adjusted according to total RNA content, as measured by the house-keeping gene, GAPDH mRNA levels. Results are presented in Table 6 as percent inhibition of CETP, relative to untreated control cells.

Data set [2] has as its system human CETP mRNA. Kind of data set: Antisense inhibition of human CETP mRNA in SW872 liposarcoma cells (Example 1). Type of data set: cell-based. The following applies: 150 nM antisense oligonucleotide, lipofectin, ~24 hours, relative to untreated control cells. The procedure: Antisense oligonucleotides targeted to a CETP nucleic acid were tested for their effect on CETP mRNA transcript in vitro. Cultured SW872 liposarcoma cells at a density of 50,000 cells per well in a 24-well plate were transfected using lipofectin reagent with 150 nM antisense oligonucleotide. After approximately 24 hours, RNA was isolated from the cells and CETP mRNA levels were measured by quantitative real-time PCR. A human primer probe set (forward sequence […], designated herein as SEQ ID NO: 38; reverse sequence GGCTCACGCCTTTGCTGTT, designated herein as SEQ ID NO: 39; probe sequence […], designated herein as SEQ ID NO: 40) was used to quantitate CETP mRNA. CETP mRNA transcript levels were adjusted according to total RNA content, as measured by the house-keeping gene, GAPDH mRNA levels. GAPDH was measured using a primer probe set with the sequence as set forth in SEQ ID NOs: 10, 11, 13. Results are presented as percent inhibition of CETP, relative to untreated control cells.
The antisense oligonucleotides in Table 3 are 5-10-5 gapmers, where the gap segment comprises ten 2′-deoxynucleosides and each wing segment comprises five 2′-MOE nucleosides. Each nucleotide in the 5′ wing segment and each nucleotide in the 3′ wing segment has a 2′-MOE modification. The internucleoside linkages throughout each gapmer are phosphorothioate (P═S) linkages. All cytosine residues throughout each gapmer are 5-methylcytosines. ‘Target start site’ indicates the 5′-most nucleotide to which the antisense oligonucleotide is targeted. ‘Target stop site’ indicates the 3′-most nucleotide to which the antisense oligonucleotide is targeted. All the antisense oligonucleotides listed in Table 3 target human CETP mRNA, designated herein as SEQ ID NO: 1 (GENBANK Accession No. M30185.1).

“ISIS 349497: 5-10-5 MOE gapmer CCTCTTCAAATGTGTAAGCT (e[5mC]*e[5mC]*eT*e[5mC]*eT*dT*d[5mC]*dA*dA*dA*dT*dG*dT*dG*dT*eA*eA*eG*e[5mC]*eT)”: the “Percent inhibition of human CETP mRNA” value in the data set on human CETP mRNA [1] (100 nM) is reported as 71%; in the data set with human CETP mRNA [1] (200 nM), 79%. The “% inhibition” value with human CETP mRNA [2] is recorded as 78%.
The matching figures for “ISIS 349445: 5-10-5 MOE gapmer CAGCAGGGTCTTCCTGGCCC (e[5mC]*eA*eG*e[5mC]*eA*dG*dG*dG*dT*d[5mC]*dT*dT*d[5mC]*d[5mC]*dT*eG*eG*e[5mC]*e[5mC]*e[5mC])”: 74%, 71% and 6%.
For “ISIS 349472: 5-10-5 MOE gapmer GCACTCTACCAGAGTCACAG (eG*e[5mC]*eA*e[5mC]*eT*d[5mC]*dT*dA*d[5mC]*d[5mC]*dA*dG*dA*dG*dT*e[5mC]*eA*e[5mC]*eA*eG)”, the “Percent inhibition of human CETP mRNA” value with human CETP mRNA [1] (100 nM) stood at 25%; in the data set with human CETP mRNA [1] (200 nM), 45%. The “% inhibition” value with human CETP mRNA [2] is recorded as 39%.
For “ISIS 349502: 5-10-5 MOE gapmer GAAGCTCTGGATGGACTCGG (eG*eA*eA*eG*e[5mC]*dT*d[5mC]*dT*dG*dG*dA*dT*dG*dG*dA*e[5mC]*eT*e[5mC]*eG*eG)”, the “Percent inhibition of human CETP mRNA” value in the data set on human CETP mRNA [1] (100 nM) was 49%; in the data set with human CETP mRNA [1] (200 nM) it was 61%. Further, the “% inhibition” value in the data set on human CETP mRNA [2] is listed as 43%.
For the substance “ISIS 349457: 5-10-5 MOE gapmer TCTGGATCACCTTGGCAGTC (eT*e[5mC]*eT*eG*eG*dA*dT*d[5mC]*dA*d[5mC]*d[5mC]*dT*dT*dG*dG*e[5mC]*eA*eG*eT*e[5mC])”, the figures for the “Percent inhibition of human CETP mRNA” value in the data set with human CETP mRNA [1] (100 nM) and with human CETP mRNA [1] (200 nM) were 42% and 30%, respectively. The “% inhibition” value in the data set on human CETP mRNA [2] is on record as 52%.
As to “ISIS 349446: 5-10-5 MOE gapmer GGAACATGAGGCTCTTCCGG (eG*eG*eA*eA*e[5mC]*dA*dT*dG*dA*dG*dG*d[5mC]*dT*d[5mC]*dT*eT*e[5mC]*e[5mC]*eG*eG)”, the “Percent inhibition of human CETP mRNA” value in the data set on human CETP mRNA [1] (100 nM) is 34%; in the data set with human CETP mRNA [1] (200 nM), 36%. In addition, the “% inhibition” value in the data set with human CETP mRNA [2] is 0%.
The matching figures for “ISIS 349507: 5-10-5 MOE gapmer TGATGATGTCGAAGAGGCTC (eT*eG*eA*eT*eG*dA*dT*dG*dT*d[5mC]*dG*dA*dA*dG*dA*eG*eG*e[5mC]*eT*e[5mC])”: 71%, 73% and 19%.
For “ISIS 349454: 5-10-5 MOE gapmer GTGCCTTTGGAGCAGGCATG (eG*eT*eG*e[5mC]*e[5mC]*dT*dT*dT*dG*dG*dA*dG*d[5mC]*dA*dG*eG*e[5mC]*eA*eT*eG)”, in that order: 69%, 68% and 46%.
The matching figures for “ISIS 349501: 5-10-5 MOE gapmer GCTGCTCTCAGTCAAGTTGG (eG*e[5mC]*eT*eG*e[5mC]*dT*d[5mC]*dT*d[5mC]*dA*dG*dT*d[5mC]*dA*dA*eG*eT*eT*eG*eG)”: 54%, 45% and 67%.
As for “ISIS 349494: 5-10-5 MOE gapmer AGAATTGACCACGACTCCCT (eA*eG*eA*eA*eT*dT*dG*dA*d[5mC]*d[5mC]*dA*d[5mC]*dG*dA*d[5mC]*eT*e[5mC]*e[5mC]*e[5mC]*eT)”, the “Percent inhibition of human CETP mRNA” value in the data set on human CETP mRNA [1] (100 nM) amounted to 85%; in the data set on human CETP mRNA [1] (200 nM), 57%. Also, the “% inhibition” value with human CETP mRNA [2] was determined as 41%.
The matching figures for “ISIS 349463: 5-10-5 MOE gapmer CTGCTGGCGATGGACAAGTG (e[5mC]*eT*eG*e[5mC]*eT*dG*dG*d[5mC]*dG*dA*dT*dG*dG*dA*d[5mC]*eA*eA*eG*eT*eG)”: 58%, 62% and 77%.
